Laboratory results reported in patent publication US10448639B2, “Fungicidal pyrazoles” (FMC CORPORATION, priority 2009, dated 2019).

What was measured:
[1] = test system: Puccinia recondita f. sp. tritici; experiment: Test H: wheat leaf rust, curative spray on inoculated wheat seedlings, visual disease rating; details: for Test H disease control rating / Test H rating (% disease control): wheat leaf rust, 100 = 100% disease control; for Test H disease control rating: sprayed after inoculation, 0 = no disease control relative to controls
Septoria nodorum = experiment: Test F: Septoria glume blotch, preventive spray on wheat seedlings, visual disease rating; details: for Test F disease control rating / Test F rating (% disease control): 100 = 100% disease control; for Test F disease control rating: 0 = no disease control relative to controls
Excerpt: (§1) General protocol for preparing test suspensions for Tests A-J: the test compounds were first dissolved in acetone in an amount equal to 3% of the final volume and then suspended at the desired concentration (in ppm) in acetone and purified water (50/50 mix by volume) containing 250 ppm of the surfactant Trem® 014 (polyhydric alcohol esters). The resulting test suspensions were then used in Tests A-J. Spraying a 200 ppm test suspension to the point of run-off on the test plants was the equivalent of a rate of 500 g/ha. Unless otherwise indicated, the rating values indicate a 200 ppm test suspension was used. (An asterisk “*” next to the rating value indicates a 40 ppm test suspension was used.)
The test suspension was sprayed to the point of run-off on wheat seedlings. The following day the seedlings were inoculated with a spore suspension of Septoria nodorum (the causal agent of Septoria glume blotch) and incubated in a saturated atmosphere at 24° C. for 48 h, and then moved to a growth chamber at 20° C. for 6 days, after which time visual disease ratings were made.

Botrytis cinerea = experiment: Test B: tomato Botrytis, preventive spray on tomato seedlings, visual disease rating; details: for Test B disease control rating / Test B rating (% disease control): tomato Botrytis, 100 = 100% disease control; for Test B disease control rating: 0 = no disease control relative to controls
[2] = test system: Erysiphe graminis f sp. tritici; experiment: Test J: wheat powdery mildew, preventive spray on wheat seedlings, visual disease rating; details: for Test J disease control rating / Test J rating (% disease control): wheat powdery mildew, 100 = 100% disease control; for Test J disease control rating: sprayed the day before inoculation, 0 = no disease control relative to controls
Alternaria solani = experiment: Test C: tomato early blight, preventive spray on tomato seedlings, visual disease rating; details: for Test C disease control rating / Test C rating (% disease control): tomato early blight, 100 = 100% disease control; for Test C disease control rating: 0 = no disease control relative to controls
Excerpt: as §1
The test suspension was sprayed to the point of run-off on tomato seedlings. The following day the seedlings were inoculated with a spore suspension of Alternaria solani (the causal agent of tomato early blight) and incubated in a saturated atmosphere at 27° C. for 48 h, and then moved to a growth chamber at 20° C. for 5 days, after which time visual disease ratings were made.

Septoria tritici = experiment: Test G: wheat leaf blotch, preventive spray on wheat seedlings, visual disease rating; details: for Test G disease control rating / Test G rating (% disease control): wheat leaf blotch, 100 = 100% disease control; for Test G disease control rating: sprayed the day before inoculation, 0 = no disease control relative to controls
Excerpt: as §1
The test suspension was sprayed to the point of run-off on wheat seedlings. The following day the seedlings were inoculated with a spore suspension of Septoria tritici (the causal agent of wheat leaf blotch) and incubated in saturated atmosphere at 24° C. for 48 h. and then the seedlings were moved to a growth chamber at 20° C. for 19 additional days, after which time visual disease ratings were made.

[3] = test system: Puccinia recondita f. sp. tritici; experiment: Test I: wheat leaf rust, preventive spray on wheat seedlings, visual disease rating; details: for Test I disease control rating / Test I rating (% disease control): wheat leaf rust, 100 = 100% disease control; for Test I disease control rating: sprayed the day before inoculation, 0 = no disease control relative to controls
[4] = curative, 0 = no control relative to controls
[5] = Septoria glume blotch, 0 = no control relative to controls
[6] = 0 = no control relative to controls
[7] = preventive, 0 = no control relative to controls
[8] = Septoria glume blotch on wheat, preventive spray, 0 = no control
[9] = preventive spray, 0 = no control

Row | SMILES | Test H disease control rating [1] | Test F disease control rating (Septoria nodorum; Septoria glume blotch on wheat) | Test B disease control rating (Botrytis cinerea) | Test J disease control rating [2] | Test C disease control rating (Alternaria solani) | Test G disease control rating (Septoria tritici) | Test I disease control rating [3] | Test H rating (% disease control) [1, 4] | Test F rating (% disease control) (Septoria nodorum; [5]) | Test B rating (% disease control) (Botrytis cinerea; [6]) | Test J rating (% disease control) [2, 6] | Test C rating (% disease control) (Alternaria solani; [6]) | Test G rating (% disease control) (Septoria tritici; [6]) | Test I rating (% disease control) [3, 7] | further results
1 | Cc1nn(C)c(Nc2ccc(F)cc2Cl)c1-c1ccc(Cl)cc1Cl [compound 354] | 82% | 0% | 99% | 100% | 0% | 100% | 98% |  |  |  |  |  |  |  | 
2 | COc1ccc(-c2c(C)nn(C)c2Oc2c(F)cc(C#N)cc2F)c(Cl)c1 [compound 155] |  |  |  |  |  |  |  | 92% | 100% | 100% | 99% | 99% | 100% | 100% | 
3 | Cc1nn(C)c(Nc2ccc(F)cc2Cl)c1-c1c(Cl)cccc1Cl [compound 334] | 0% | 0% | 100% | 100% | 0% | 100% | 97% |  |  |  |  |  |  |  | 
4 | COc1cc(OC)c(Nc2c(-c3c(F)cc(F)cc3F)c(C)nn2C)cc1Cl [compound 100] |  |  |  |  |  |  |  |  |  |  |  |  |  |  | Test H rating (% disease control) ([1]; curative spray, 0 = no control): 0%; Test F rating (% disease control) (Septoria nodorum; [8]): 0%; Test B rating (% disease control) (Botrytis cinerea; [9]): 38%; Test J rating (% disease control) [2, 9]: 0%; Test C rating (% disease control) (Alternaria solani; [9]): 0%; Test G rating (% disease control) (Septoria tritici; [9]): 48%; Test I rating (% disease control) [3, 9]: 41%
5 | Cc1ccc(Oc2c(-c3c(F)cc(F)cc3F)c(C)nn2C)cc1C [compound 209] |  |  |  |  |  |  |  | 0% | 0% | 0% | 97% | 0% | 0% | 0% | 
6 | Cc1nn(C)c(Nc2ccc(F)cc2F)c1-c1ccc(C#N)cc1Cl [compound 331] | 8% | 73% | 100% | 97% | 80% | 100% | 100% |  |  |  |  |  |  |  | 
7 | Cc1nn(C)c(Oc2ncc(C(F)(F)F)cc2F)c1-c1ccc(F)cc1Br [compound 260] |  |  |  |  |  |  |  | 0% | 0% | 0% | 0% | 0% | 0% | 0% | 
8 | COc1cc(F)c(-c2c(C)nn(C)c2Nc2ccc(F)cc2F)c(F)c1 [Compound 23, 4-(2,6-difluoro-4-methoxyphenyl)-N-(2,4-difluorophenyl)-1,3-dimethyl-1H-pyrazol-5-amine] |  |  |  |  |  |  |  |  |  |  |  |  |  |  | pest or weed control at 200 µg/mL ([1]; 144 h, read-out: Test H rating (% disease control)): 92%; pest or weed control at 200 µg/mL (Septoria nodorum; Parastagonospora nodorum, in Triticum aestivum, 192 h, read-out: Test F rating (% disease control)): 99%; pest or weed control at 200 µg/mL (Botrytis cinerea; Botrytis cinerea, in Solanum lycopersicum, 120 h, read-out: Test B rating (% disease control)): 98%; pest or weed control at 200 µg/mL ([2]; Blumeria graminis, in Triticum aestivum, 192 h, read-out: Test J rating (% disease control)): 100%; pest or weed control at 200 µg/mL (Alternaria solani; Alternaria solani, in Solanum lycopersicum, 168 h, read-out: Test C rating (% disease control)): 100%; pest or weed control at 200 µg/mL (Septoria tritici; Zymoseptoria tritici, in Triticum aestivum, 504 h, read-out: Test G rating (% disease control)): 93%; pest or weed control at 200 µg/mL ([3]; 192 h, read-out: Test I rating (% disease control)): 100%
9 | COc1ccc(-c2c(C)nn(C)c2Nc2c(F)cccc2F)c(Cl)c1 [compound 161] |  |  |  |  |  |  |  | 95% | 0% | 98% | 98% | 100% | 100% | 100% | 
10 | Cc1nn(C)c(Oc2c(F)cc([N+](=O)[O-])cc2F)c1-c1ccc(F)cc1Cl [compound 121] |  |  |  |  |  |  |  |  |  |  |  |  |  |  | Test H rating (% disease control) ([1]; curative spray, 0 = no control): 83%; Test F rating (% disease control) (Septoria nodorum; [8]): 82%; Test B rating (% disease control) (Botrytis cinerea; [9]): 100%; Test J rating (% disease control) [2, 9]: 97%; Test C rating (% disease control) (Alternaria solani; [9]): 86%; Test G rating (% disease control) (Septoria tritici; [9]): 99%; Test I rating (% disease control) [3, 9]: 100%
11 | COc1cc(F)c(Nc2c(-c3ccc(F)cc3F)c(C)nn2C)c(F)c1 [compound 42] |  |  |  |  |  |  |  |  |  |  |  |  |  |  | Test H rating (% disease control) ([1]; curative spray, 0 = no control): 0%; Test F rating (% disease control) (Septoria nodorum; [8]): 0%; Test B rating (% disease control) (Botrytis cinerea; [9]): 100%; Test J rating (% disease control) [2, 9]: 82%; Test C rating (% disease control) (Alternaria solani; [9]): 0%; Test G rating (% disease control) (Septoria tritici; [9]): 93%; Test I rating (% disease control) [3, 9]: 94%
12 | Cc1nn(C)c(Nc2cc(F)ccc2F)c1-c1c(F)cccc1F [compound 197] |  |  |  |  |  |  |  | 0% | 95% | 97% | 96% | 0% | 99% | 79% | 
13 | COc1ccc(-c2c(C)nn(C)c2Oc2ccc(C#N)cc2Cl)c(Br)c1 [compound 318] | 0% | 0% | 99% | 89% | 0% | 100% | 97% |  |  |  |  |  |  |  | 
14 | COc1cc(F)c(-c2c(C)nn(C)c2Oc2ccc(Br)c(C)c2)c(F)c1 [compound 186] |  |  |  |  |  |  |  | 0% | 0% | 0% | 93% | 0% | 99% | 54% | 
15 | Cc1nn(C)c(Nc2ccc(F)cc2Br)c1-c1ccc(F)cc1Br [compound 313] | 91% | 51% | 100% | 100% | 97% | 100% | 100% |  |  |  |  |  |  |  | 
16 | COc1ccc(-c2c(C)nn(C)c2Oc2ccc(C#N)cc2Cl)c(Cl)c1 [compound 311] | 0% | 60% | 100% | 91% | 0% | 100% | 99% |  |  |  |  |  |  |  | 
17 | Cc1nn(C)c(Nc2ccc(F)cc2F)c1-c1c(F)cccc1Cl [compound 177] |  |  |  |  |  |  |  | 0% | 73% | 100% | 100% | 100% | 98% | 83% | 
18 | COc1ccc(Nc2c(-c3ccc(Cl)cc3Cl)c(C)nn2C)c(OC)c1 [compound 57] |  |  |  |  |  |  |  |  |  |  |  |  |  |  | Test H rating (% disease control) ([1]; curative spray, 0 = no control): 85%; Test F rating (% disease control) (Septoria nodorum; [8]): 0%; Test B rating (% disease control) (Botrytis cinerea; [9]): 98%; Test J rating (% disease control) [2, 9]: 0%; Test C rating (% disease control) (Alternaria solani; [9]): 0%; Test G rating (% disease control) (Septoria tritici; [9]): 94%; Test I rating (% disease control) [3, 9]: 85%
19 | COc1ccc(Nc2c(-c3c(F)cccc3F)c(C)nn2C)c(Cl)c1 [compound 201] |  |  |  |  |  |  |  | 18% | 20% | 99% | 99% | 97% | 100% | 97% | 
20 | Cc1nn(C)c(Oc2ccc(Cl)cc2Cl)c1-c1c(F)cc(F)cc1F [compound 38] |  |  |  |  |  |  |  |  |  |  |  |  |  |  | Test H rating (% disease control) ([1]; curative spray, 0 = no control): 0%; Test F rating (% disease control) (Septoria nodorum; [8]): 0%; Test B rating (% disease control) (Botrytis cinerea; [9]): 99%; Test J rating (% disease control) [2, 9]: 99%; Test C rating (% disease control) (Alternaria solani; [9]): 9%; Test G rating (% disease control) (Septoria tritici; [9]): 97%; Test I rating (% disease control) [3, 9]: 99%
